{
  "source": "paper PMC5218480",
  "about": "(PLoS ONE, 2017)",
  "tested_on": "MV-4-11 cells",
  "assay": "Gene expression microarray analysis (Affymetrix PrimeView) and GSEA",
  "type": "cell-based, human",
  "set-up": "RFU PODN (11730768_x_at) / Fold change /veh PODN (11730768_x_at) / RFU LINC00158 (11744669_a_at) / Fold change /veh LINC00158 (11744669_a_at) / RFU DUSP10 (11751237_a_at) / Fold change /veh DUSP10 (11751237_a_at) / RFU ID3 (11757404_x_at) / Fold change /veh ID3 (11757404_x_at) / RFU PLEKHG5 (11737974_s_at) / Fold change /veh PLEKHG5 (11737974_s_at) / RFU LRRC4B (11730491_at) / Fold change /veh LRRC4B (11730491_at) / RFU GIMAP4 (11747438_a_at) / Fold change /veh GIMAP4 (11747438_a_at) / RFU KRT8 (11758183_x_at) / Fold change /veh KRT8 (11758183_x_at) / RFU CNN1 (11734310_a_at) / Fold change /veh CNN1 (11734310_a_at) / RFU VPS37D (11726825_at) / Fold change /veh VPS37D (11726825_at) / RFU C10orf10 (11716522_x_at) / Fold change /veh C10orf10 (11716522_x_at) / RFU KIR2DL2 /// KIR2DL4 /// KIR2DL5A /// KIR2DL5B /// KIR2DS1 /// KIR2DS2 /// KIR2DS3 /// KIR2DS4 /// KIR3DL3 /// KIR3DL3 /// KIR3DS1 (11738374_at) / Fold change /veh KIR2DL2 /// KIR2DL4 /// KIR2DL5A /// KIR2DL5B /// KIR2DS1 /// KIR2DS2 /// KIR2DS3 /// KIR2DS4 /// KIR3DL3 /// KIR3DL3 /// KIR3DS1 (11738374_at) / RFU C1QL1 (11718748_at) / Fold change /veh C1QL1 (11718748_at) / RFU TMPRSS4 (11747572_a_at) / Fold change /veh TMPRSS4 (11747572_a_at) / RFU HAMP (11756126_x_at) / Fold change /veh HAMP (11756126_x_at) / RFU RNFT2 (11725882_a_at) / Fold change /veh RNFT2 (11725882_a_at) / RFU NR4A2 (11747474_a_at) / Fold change /veh NR4A2 (11747474_a_at) / RFU ABCC12 (11746883_a_at) / Fold change /veh ABCC12 (11746883_a_at) / RFU TMEM136 (11760407_x_at) / Fold change /veh TMEM136 (11760407_x_at) / RFU CLDN22 /// WWC2 (11732394_at) / Fold change /veh CLDN22 /// WWC2 (11732394_at) / RFU HLA-DPB1 (11760878_x_at) / Fold change /veh HLA-DPB1 (11760878_x_at) / RFU SPINT1 (11716480_a_at) / Fold change /veh SPINT1 (11716480_a_at) / RFU GAP43 (11754022_s_at) / Fold change /veh GAP43 (11754022_s_at) / RFU A4GNT (11735810_at) / Fold change /veh A4GNT (11735810_at) / RFU PRB3 (11715151_x_at) / Fold change /veh PRB3 (11715151_x_at) / RFU TUBB4B (11761932_at) / Fold change /veh TUBB4B (11761932_at) / RFU CAPN14 (11732068_a_at) / Fold change /veh CAPN14 (11732068_a_at) / RFU TMCC2 (11721928_a_at) / Fold change /veh TMCC2 (11721928_a_at) / RFU IRGQ (11745062_a_at) / Fold change /veh IRGQ (11745062_a_at) / RFU FAM174B (11720279_a_at) / Fold change /veh FAM174B (11720279_a_at) / RFU TMPRSS4 (11748680_a_at) / Fold change /veh TMPRSS4 (11748680_a_at) / RFU FAM212B (11763350_a_at) / Fold change /veh FAM212B (11763350_a_at) / RFU PLEKHG5 (11743358_a_at) / Fold change /veh PLEKHG5 (11743358_a_at) / RFU ZSCAN30 (11745921_a_at) / Fold change /veh ZSCAN30 (11745921_a_at) / RFU CMKLR1 (11741424_a_at) / Fold change /veh CMKLR1 (11741424_a_at) / RFU LOC101060620 /// MAPK8IP1 (11723275_at) / Fold change /veh LOC101060620 /// MAPK8IP1 (11723275_at) / RFU SPTSSB (11747773_x_at) / Fold change /veh SPTSSB (11747773_x_at) / RFU PRSS12 (11739890_at) / Fold change /veh PRSS12 (11739890_at) / RFU BIN1 (11741810_x_at) / Fold change /veh BIN1 (11741810_x_at) / RFU WNT11 (11732464_a_at) / Fold change /veh WNT11 (11732464_a_at) / RFU C10orf10 (11716521_a_at) / Fold change /veh C10orf10 (11716521_a_at) / RFU C5orf56 (11738089_at) / Fold change /veh C5orf56 (11738089_at) / RFU CYB561 (11721691_x_at) / Fold change /veh CYB561 (11721691_x_at) / RFU ANKRD19P (11752326_a_at) / Fold change /veh ANKRD19P (11752326_a_at) / RFU OR2T12 /// OR2T33 /// OR2T8 (11738714_s_at) / Fold change /veh OR2T12 /// OR2T33 /// OR2T8 (11738714_s_at) / RFU VCAN (11748164_a_at) / Fold change /veh VCAN (11748164_a_at) / RFU JSRP1 (11732532_at) / Fold change /veh JSRP1 (11732532_at) / RFU KRTAP10-11 (11738290_x_at) / Fold change /veh KRTAP10-11 (11738290_x_at) / RFU MYO3A (11730013_a_at) / Fold change /veh MYO3A (11730013_a_at) / RFU EBF3 (11725865_a_at) / Fold change /veh EBF3 (11725865_a_at) / RFU CAMK2N1 (11719241_x_at) / Fold change /veh CAMK2N1 (11719241_x_at) / RFU C5orf56 (11738088_a_at) / Fold change /veh C5orf56 (11738088_a_at) / RFU OLFML3 (11715873_a_at) / Fold change /veh OLFML3 (11715873_a_at) / RFU LOC100653217 /// NTM (11731650_a_at) / Fold change /veh LOC100653217 /// NTM (11731650_a_at) / RFU MAPK11 (11762145_a_at) / Fold change /veh MAPK11 (11762145_a_at) / RFU FIZ1 (11724087_x_at) / Fold change /veh FIZ1 (11724087_x_at) / RFU OASL (11726364_x_at) / Fold change /veh OASL (11726364_x_at) / RFU SOX15 (11748057_x_at) / Fold change /veh SOX15 (11748057_x_at) / RFU CD79A (11719716_a_at) / Fold change /veh CD79A (11719716_a_at) / RFU HIST1H1D (11736915_at) / Fold change /veh HIST1H1D (11736915_at) / RFU CASKIN2 (11723855_a_at) / Fold change /veh CASKIN2 (11723855_a_at) / RFU LOC730098 (11760151_x_at) / Fold change /veh LOC730098 (11760151_x_at) / RFU OR4N2 (11742367_at) / Fold change /veh OR4N2 (11742367_at) / RFU PRRT2 (11749266_a_at) / Fold change /veh PRRT2 (11749266_a_at) / RFU SNX32 (11753110_a_at) / Fold change /veh SNX32 (11753110_a_at) / RFU CDHR5 (11726645_a_at) / Fold change /veh CDHR5 (11726645_a_at) / RFU RCAN1 (11760418_a_at) / Fold change /veh RCAN1 (11760418_a_at) / RFU FAM167A (11723789_a_at) / Fold change /veh FAM167A (11723789_a_at) / RFU FAM26E (11764081_at) / Fold change /veh FAM26E (11764081_at) / RFU ISYNA1 (11749810_s_at) / Fold change /veh ISYNA1 (11749810_s_at) / RFU ACY1 (11761880_at) / Fold change /veh ACY1 (11761880_at) / RFU 11764098_at / Fold change /veh 11764098_at / RFU SAMD14 (11745864_x_at) / Fold change /veh SAMD14 (11745864_x_at) / RFU NPB (11741838_a_at) / Fold change /veh NPB (11741838_a_at) / RFU TMPRSS6 (11731388_a_at) / Fold change /veh TMPRSS6 (11731388_a_at) / RFU KRTAP10-2 (11738614_at) / Fold change /veh KRTAP10-2 (11738614_at) / RFU ARHGAP8 /// PRR5-ARHGAP8 (11727945_x_at) / Fold change /veh ARHGAP8 /// PRR5-ARHGAP8 (11727945_x_at) / RFU KRTAP5-7 /// NADSYN1 (11734609_at) / Fold change /veh KRTAP5-7 /// NADSYN1 (11734609_at) / RFU RASL12 (11751679_a_at) / Fold change /veh RASL12 (11751679_a_at) / RFU CDKN2B (11736163_a_at) / Fold change /veh CDKN2B (11736163_a_at) / RFU PRF1 (11729649_at) / Fold change /veh PRF1 (11729649_at) / RFU, ZNF638 /// ZNF638-IT1 / Fold change vs veh, ZNF638 /// ZNF638-IT1 / RFU, PANK3 / Fold change vs veh, PANK3 / RFU, SH3YL1 / Fold change vs veh, SH3YL1 / RFU, ZEB2 / Fold change vs veh, ZEB2 / RFU, NRIP1 / Fold change vs veh, NRIP1 / RFU, PTTG1IP / Fold change vs veh, PTTG1IP / RFU, CAPN2 / Fold change vs veh, CAPN2 / RFU, MED14 / Fold change vs veh, MED14 / RFU, SNORA58 / Fold change vs veh, SNORA58 / RFU, C1orf63 / Fold change vs veh, C1orf63 / RFU, LRRFIP1 / Fold change vs veh, LRRFIP1 / RFU, NDUFAF7 / Fold change vs veh, NDUFAF7 / RFU, SLC12A2 / Fold change vs veh, SLC12A2 / RFU, IBTK / Fold change vs veh, IBTK / RFU, ESF1 / Fold change vs veh, ESF1 / Fold change vs veh, TMEM50B / RFU, TAOK1 / Fold change vs veh, TAOK1 / RFU, ACBD3 / Fold change vs veh, ACBD3 / RFU, TMA16 / Fold change vs veh, TMA16 / RFU, RWDD3 / Fold change vs veh, RWDD3 / RFU, BCAT1 / Fold change vs veh, BCAT1 / RFU, EDEM3 / Fold change vs veh, EDEM3 / RFU, TMEM33 / Fold change vs veh, TMEM33 / RFU, WDR75 / Fold change vs veh, WDR75 / RFU, AHCTF1 / Fold change vs veh, AHCTF1 / RFU, TFRC / Fold change vs veh, TFRC / RFU, ZDHHC17 / Fold change vs veh, ZDHHC17 / RFU, NOM1 / Fold change vs veh, NOM1 / RFU, ARL8B / Fold change vs veh, ARL8B / RFU, ZBTB11 / Fold change vs veh, ZBTB11 / RFU, TAMM41 / Fold change vs veh, TAMM41 / RFU, KIAA1704 /// LOC100996395 / Fold change vs veh, KIAA1704 /// LOC100996395 / RFU, ING1 / Fold change vs veh, ING1 / RFU, TRMT61B / Fold change vs veh, TRMT61B / RFU, FUBP3 / Fold change vs veh, FUBP3 / RFU, TP53 / Fold change vs veh, TP53 / RFU, TNKS2 / Fold change vs veh, TNKS2 / RFU, ZFP14 / Fold change vs veh, ZFP14 / RFU, ACTR2 / Fold change vs veh, ACTR2 / RFU, PPP3R1 / Fold change vs veh, PPP3R1 / RFU, PIK3R1 / Fold change vs veh, PIK3R1 / RFU, HNRNPA1 / Fold change vs veh, HNRNPA1 / RFU, RNF170 / Fold change vs veh, RNF170 / RFU, ZNF28 / Fold change vs veh, ZNF28 / RFU, RNGTT / Fold change vs veh, RNGTT / RFU, OGT / Fold change vs veh, OGT / RFU, BRD1 / Fold change vs veh, BRD1 / RFU, MARS / Fold change vs veh, MARS / RFU, ZNF655 / Fold change vs veh, ZNF655 / RFU, FAHD1 / Fold change vs veh, FAHD1 / RFU, BDP1 / Fold change vs veh, BDP1 / RFU, LRRCC1 / Fold change vs veh, LRRCC1 / RFU, ARID1A / Fold change vs veh, ARID1A / RFU, ZNF146 / Fold change vs veh, ZNF146 / RFU, ZNF330 / Fold change vs veh, ZNF330 / RFU, GPN3 / Fold change vs veh, GPN3 / RFU, C9orf123 / Fold change vs veh, C9orf123 / RFU, N4BP2L2 / Fold change vs veh, N4BP2L2 / RFU, ARFIP1 / Fold change vs veh, ARFIP1 / RFU, FAM179B / Fold change vs veh, FAM179B / RFU, BCL10 / Fold change vs veh, BCL10 / RFU, UHRF1BP1L / Fold change vs veh, UHRF1BP1L / RFU, BET1 / Fold change vs veh, BET1 / RFU, CNOT2 / Fold change vs veh, CNOT2 / RFU, ZNF268 / Fold change vs veh, ZNF268 / Fold change vs veh, ZNF507 / RFU, DGCR2 / Fold change vs veh, DGCR2 / RFU, WDSUB1 / Fold change vs veh, WDSUB1 / Fold change vs veh, HSP90B1 /// MIR3652 / RFU, ADSS / Fold change vs veh, ADSS / RFU, GK / Fold change vs veh, GK / RFU, ZNF148 / Fold change vs veh, ZNF148 / RFU, TAF9 / Fold change vs veh, TAF9 / RFU, SLC1A5 / Fold change vs veh, SLC1A5 / RFU, SLMO2 / Fold change vs veh, SLMO2 / RFU, ABCC4 / Fold change vs veh, ABCC4 / RFU, LOC101060439 /// RAP1B / Fold change vs veh, LOC101060439 /// RAP1B / RFU, RFX7 / Fold change vs veh, RFX7 / RFU, GTPBP10 / Fold change vs veh, GTPBP10 / RFU, CNEP1R1 / Fold change vs veh, CNEP1R1 / RFU, BIVM-ERCC5 /// ERCC5 / Fold change vs veh, BIVM-ERCC5 /// ERCC5 / RFU, ILF3 / Fold change vs veh, ILF3 / RFU 11762660_at / Fold change /veh 11762660_at / RFU VCAN (11757783_s_at) / Fold change /veh VCAN (11757783_s_at) / RFU DDX43 (11728927_at) / Fold change /veh DDX43 (11728927_at) / RFU KRT8 (11758188_x_at) / Fold change /veh KRT8 (11758188_x_at) / RFU NKD1 (11759106_at) / Fold change /veh NKD1 (11759106_at) / RFU SRD5A1 (11742802_a_at) / Fold change /veh SRD5A1 (11742802_a_at) / RFU TPSAB1 /// TPSB2 (11721975_s_at) / Fold change /veh TPSAB1 /// TPSB2 (11721975_s_at) / RFU GSTM3 (11746129_a_at) / Fold change /veh GSTM3 (11746129_a_at) / RFU IL23R (11737362_x_at) / Fold change /veh IL23R (11737362_x_at) / RFU TMEM51 (11727254_a_at) / Fold change /veh TMEM51 (11727254_a_at) / RFU PIWIL2 (11732686_x_at) / Fold change /veh PIWIL2 (11732686_x_at) / RFU ORM1 (11744905_x_at) / Fold change /veh ORM1 (11744905_x_at) / RFU CCDC152 (11743942_at) / Fold change /veh CCDC152 (11743942_at) / RFU ECM1 (11717891_a_at) / Fold change /veh ECM1 (11717891_a_at) / RFU IL23R (11748794_a_at) / Fold change /veh IL23R (11748794_a_at) / RFU TNFAIP8L3 (11732012_x_at) / Fold change /veh TNFAIP8L3 (11732012_x_at) / RFU MBOAT4 (11741988_at) / Fold change /veh MBOAT4 (11741988_at) / RFU 11764193_at / Fold change /veh 11764193_at / RFU TMEM53 (11763286_at) / Fold change /veh TMEM53 (11763286_at) / RFU MAGEB2 (11727129_at) / Fold change /veh MAGEB2 (11727129_at) / RFU TMEM200A (11744735_a_at) / Fold change /veh TMEM200A (11744735_a_at) / RFU CCDC152 (11751479_a_at) / Fold change /veh CCDC152 (11751479_a_at) / RFU FAM211A (11726209_a_at) / Fold change /veh FAM211A (11726209_a_at) / RFU RGS16 (11746705_a_at) / Fold change /veh RGS16 (11746705_a_at) / RFU VCAN (11755009_s_at) / Fold change /veh VCAN (11755009_s_at) / RFU RHOB (11743442_s_at) / Fold change /veh RHOB (11743442_s_at) / RFU RGS16 (11720943_a_at) / Fold change /veh RGS16 (11720943_a_at) / RFU RGS16 (11720944_at) / Fold change /veh RGS16 (11720944_at) / RFU, VPS4B / Fold change vs veh, VPS4B / RFU, CREB1 / Fold change vs veh, CREB1 / RFU, DNAJC13 / Fold change vs veh, DNAJC13 / RFU, GNAQ / Fold change vs veh, GNAQ / RFU, CDK5R1 / Fold change vs veh, CDK5R1 / RFU, ZRANB3 / Fold change vs veh, ZRANB3 / RFU, CUL4A / Fold change vs veh, CUL4A / RFU, CCNY / Fold change vs veh, CCNY / RFU, UFL1 / Fold change vs veh, UFL1 / RFU, COG3 / Fold change vs veh, COG3 / RFU, DIAPH2 / Fold change vs veh, DIAPH2 / RFU, SKA2 / Fold change vs veh, SKA2 / RFU, AFF3 / Fold change vs veh, AFF3 / RFU, LMF1 / Fold change vs veh, LMF1 / RFU, IPO11 / Fold change vs veh, IPO11 / RFU, DFFB / Fold change vs veh, DFFB / RFU, FOXP1 / Fold change vs veh, FOXP1 / RFU, CARD8 / Fold change vs veh, CARD8 / RFU, STRN3 / Fold change vs veh, STRN3 / RFU, ADK / Fold change vs veh, ADK / RFU, RASSF2 / Fold change vs veh, RASSF2 / RFU, WIPF1 / Fold change vs veh, WIPF1 / RFU, LARP1B / Fold change vs veh, LARP1B / RFU, RASA1 / Fold change vs veh, RASA1 / RFU, RB1 / Fold change vs veh, RB1 / RFU, PPFIA1 / Fold change vs veh, PPFIA1 / RFU, MAT2A / Fold change vs veh, MAT2A / RFU, CCT5 / Fold change vs veh, CCT5 / RFU, WDR92 / Fold change vs veh, WDR92 / RFU, CUX1 / Fold change vs veh, CUX1 / RFU, TTC7A / Fold change vs veh, TTC7A / RFU, TMEM135 / Fold change vs veh, TMEM135 / RFU, DEPTOR / Fold change vs veh, DEPTOR / RFU, CPM / Fold change vs veh, CPM / RFU, DNAJB6 / Fold change vs veh, DNAJB6 / RFU, CACNA2D3 / Fold change vs veh, CACNA2D3 / RFU, DTX4 / Fold change vs veh, DTX4 / RFU, TFCP2 / Fold change vs veh, TFCP2 / RFU, GMCL1 /// GMCL1P1 / Fold change vs veh, GMCL1 /// GMCL1P1 / RFU, AEBP2 / Fold change vs veh, AEBP2 / RFU, SNHG1 /// SNORD22 /// SNORD25 /// SNORD26 /// SNORD27 /// SNORD28 /// SNORD29 /// SNORD31 / Fold change vs veh, SNHG1 /// SNORD22 /// SNORD25 /// SNORD26 /// SNORD27 /// SNORD28 /// SNORD29 /// SNORD31 / Fold change (Aza/veh), C12orf56 (ProbeSet 11735607_a_at) / Fold change (ACY-1035/veh), C12orf56 (ProbeSet 11735607_a_at) / Fold change (Aza/veh), FGFR1OP (ProbeSet 11751329_s_at) / Fold change (ACY-1035/veh), FGFR1OP (ProbeSet 11751329_s_at) / Fold change (Aza/veh), VPS36 (ProbeSet 11739960_a_at) / Fold change (ACY-1035/veh), VPS36 (ProbeSet 11739960_a_at) / RFU SYPL1 (11715823_x_at) / Fold change /veh SYPL1 (11715823_x_at) / RFU IGFBP7 (11715501_s_at) / Fold change /veh IGFBP7 (11715501_s_at) / RFU REEP3 (11722064_at) / Fold change /veh REEP3 (11722064_at) / RFU IGLL1 (11728026_x_at) / Fold change /veh IGLL1 (11728026_x_at): dose or concentration left out as unconfirmed",
  "details": "ProbeSet 11722463_a_at; LIST B",
  "data": [
    {"smiles": "Nc1ncn([C@@H]2O[C@H](CO)[C@@H](O)[C@H]2O)c(=O)n1", "note": "[azacitidine]", "values": [
      {"measurement": "Fold change vs veh, TNKS2", "value": 0.86}
    ]}
  ]
}
